Laboratory results taken from ChEMBL document CHEMBL1124566, “N-(phthalimidoalkyl) derivatives of serotonergic agents: a common interaction at 5-HT1A serotonin binding sites?” (J Med Chem, 1989).

Each molecule was assayed against T1, 5-hydroxytryptamine receptor 1A (Rattus norvegicus, UniProt P19327) (assay: not given).
T1 sequence (P19327 whole entry): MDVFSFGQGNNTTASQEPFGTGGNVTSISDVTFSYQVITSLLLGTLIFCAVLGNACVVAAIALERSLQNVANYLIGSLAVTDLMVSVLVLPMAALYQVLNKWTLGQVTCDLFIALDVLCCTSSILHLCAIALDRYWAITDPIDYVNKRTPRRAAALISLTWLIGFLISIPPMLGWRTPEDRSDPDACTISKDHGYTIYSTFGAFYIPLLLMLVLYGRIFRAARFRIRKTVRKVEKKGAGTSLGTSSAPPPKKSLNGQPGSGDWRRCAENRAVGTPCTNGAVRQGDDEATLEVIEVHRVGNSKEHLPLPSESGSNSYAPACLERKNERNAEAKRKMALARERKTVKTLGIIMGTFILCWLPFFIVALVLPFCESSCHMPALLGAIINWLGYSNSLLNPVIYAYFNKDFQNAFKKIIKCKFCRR
Format: cell membranes, Membrane
Molecule COc1ccccc1CCCN(C)C has a Ki of 3200 nM. Work on COc1cccc2c1CC(NCCN1C(=O)c3ccccc3C1=O)CC2 (stereo not given) yielded a Ki of 250 nM. COc1ccc2ccccc2c1N1CCNCC1 was tested, and the Ki was 34 nM. COc1cccc2c1CC(NCCCN1C(=O)c3ccccc3C1=O)CC2 (stereo not given) was tested, and the Ki was 48 nM. With COc1ccc2cccc(N3CCNCC3)c2c1 the Ki was 3.3 nM. For O=C1c2ccccc2C(=O)N1CCCCNCCCOc1cccc2ccccc12, the Ki was 25 nM. COc1ccccc1CCCNCCCCN1C(=O)c2ccccc2C1=O was tested, and the Ki was 110 nM. COc1ccc2[nH]cc(CCNCCCCN3C(=O)c4ccccc4C3=O)c2c1 was tested, and the Ki was 20 nM. Molecule COc1ccccc1CCCN(C)CCCCN1C(=O)c2ccccc2C1=O has a Ki of 170 nM. Molecule CN(CCCCN1C(=O)c2ccccc2C1=O)CCc1ccccc1 has a Ki of 300 nM. Work on COc1ccc2[nH]cc(CCN(C)C)c2c1 [MEBUFOTENIN] yielded a Ki of 10 nM.

Each molecule was assayed against T1, 5-hydroxytryptamine receptor 1A (assay: Binding affinity of compound towards 5-HT 1A receptor by measuring ability to displace [3H]OH-DPAT from 5-hydroxytryptamine 1A receptor in rat hippocampal membranes).
Molecule COc1ccccc1N1CCN(CCCCCN2C(=O)c3ccccc3C2=O)CC1 has a Ki of 5 nM. Molecule CN(C)CCc1ccccc1 has a Ki of 850 nM. O=C1c2ccccc2C(=O)N1CCCNCCCOc1cccc2ccccc12 gave a Ki of 45 nM.

Target: T1, 5-hydroxytryptamine receptor 1A
Test: as above
Remark: another data set of the same source
O=C1c2ccccc2C(=O)N1CCNCCCOc1cccc2ccccc12 was tested, and the Ki was 1330 nM.
